Measurements as given in US20240132431A1, “METHOD FOR ALKYLATING ACIDIC FUNCTIONAL GROUP” (Chugai Seiyaku Kabushiki Kaisha, priority 2021, published 2024).
Blank lines part the entries; values can stand above or below the compound they belong to.

Target: T1, Bcl-2 protein (Recombinant Human Bcl-2 Protein) (Homo sapiens, UniProt P10415)
T1 construct: purchased Novus NBP2-34889
Assay: Binding evaluation of mixture library compounds to Bcl-2 using AS-MS (affinity selection mass spectrometry)
Conditions: for ASMS ratio (%) n = 1: replicate n = 1; for ASMS ratio (%) n = 1 / ASMS ratio (%) n = 2: ASMS Ratio(%)=(A−C)/B×100; for ASMS ratio (%) n = 2: replicate n = 2
Procedure, shortened: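 Affinity selection MS: Bcl-2 20 μM + 1200-cpd mixture, […]/cpd, Tris pH 7.4 buffer w/ Tween-20, DTT; 1 h 23° C dark; P-2 spin SEC; MeCN/MeOH extraction; RP LC/MS. ASMS Ratio(%) = (A−C)/B×100.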

[1] = AS-MS on the mixture of 1200 library compounds
[2] = AS-MS, mixture of 1200 compounds, Bcl-2

T1 sequence (P10415 whole entry): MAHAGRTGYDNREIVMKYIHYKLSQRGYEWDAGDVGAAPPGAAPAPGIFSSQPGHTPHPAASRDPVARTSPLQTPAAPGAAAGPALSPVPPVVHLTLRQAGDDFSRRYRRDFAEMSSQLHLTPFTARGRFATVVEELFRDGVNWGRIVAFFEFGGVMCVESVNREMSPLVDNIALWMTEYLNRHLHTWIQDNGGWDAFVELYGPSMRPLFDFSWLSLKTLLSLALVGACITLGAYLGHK

ASMS ratio (%) (n = 1): 7.1%
ASMS ratio (%) (n = 2): −6.0%
Compound: CCOc1cncc(-c2cc(C(=O)N3CCN(c4ccc(C(=O)NS(=O)(=O)c5ccc(NCCSc6ccccc6)c(C(F)(F)F)c5)cc4)CC3)cc(C(C)(C)C)c2)c1 [B2R038-01, 4-[4-[3-tert-Butyl-5-(5-ethoxypyridin-3-yl)benzoyl]piperazin-1-yl]-N-[4-(2-phenylsulfanylethylamino)-3-(trifluoromethyl)phenyl]sulfonylbenzamide]

ASMS ratio (%) (n = 1): 0.0%
ASMS ratio (%) (n = 2): 0.0%
Compound: CCOc1cccc(-c2ccc(CN3CCN(c4ccc(C(=O)NS(C)(=O)=O)cc4)CC3)c(CC)c2)c1 [B2I049-01, 4-[4-[[4-(3-Ethoxyphenyl)-2-ethylphenyl]methyl]piperazin-1-yl]-N-methylsulfonylbenzamide]

ASMS ratio (%) (n = 1): 0.0%
ASMS ratio (%) (n = 2): −15.5%
Compound: CCOc1cccc(-c2csc(C(=O)N3CCN(c4ccc(C(=O)NS(=O)(=O)c5ccc(NCCSc6ccccc6)c(C(F)(F)F)c5)cc4)CC3)c2)c1 [B2R023-01, 4-[4-[4-(3-Ethoxyphenyl)thiophene-2-carbonyl]piperazin-1-yl]-N-[4-(2-phenylsulfanylethylamino)-3-(trifluoromethyl)phenyl]sulfonylbenzamide]

ASMS ratio (%) (n = 1): 0.0%
ASMS ratio (%) (n = 2): −5.4%
Compound: CCOc1cncc(-c2cc(C(=O)N3CCN(c4ccc(C(=O)NS(=O)(=O)C(C)(C)C)nn4)CC3)cc(C(C)(C)C)c2)c1 [B2L016-01, 6-[4-[3-tert-Butyl-5-(5-ethoxypyridin-3-yl)benzoyl]piperazin-1-yl]-N-tert-butylsulfonylpyridazine-3-carboxamide]

ASMS ratio (%) (n = 1): 0.0%
ASMS ratio (%) (n = 2): 0.0%
Compound: CCOc1cccc(-c2csc(C(=O)N3CCN(c4ccc(C(=O)NS(=O)(=O)CCC(F)(F)F)cc4)CC3)c2)c1 [B2N023-01, 4-[4-[4-(3-Ethoxyphenyl)thiophene-2-carbonyl]piperazin-1-yl]-N-(3,3,3-trifluoropropylsulfonyl)benzamide]

ASMS ratio (%) (n = 1): 0.0%
Compound: CCOc1cccc(-c2ccc(C(=O)N3CCN(c4ccc(C(=O)NS(=O)(=O)C(C)(C)C)cc4)CC3)c3ccccc23)c1 [B2L035-01, N-tert-Butylsulfonyl-4-[4-[4-(3-ethoxyphenyl)naphthalene-1-carbonyl]piperazin-1-yl]benzamide]

ASMS ratio (%) (n = 1): 0.0%
ASMS ratio (%) (n = 2): 0.0%
Compound: CCOc1cncc(-c2cc(CN3CCN(c4ccc(C(=O)NS(=O)(=O)C(C)(C)C)cc4)CC3)cc(OC(F)(F)F)c2)c1 [B2L064-01, N-tert-Butylsulfonyl-4-[4-[[3-(5-ethoxypyridin-3-yl)-5-(trifluoromethoxy)phenyl]methyl]piperazin-1-yl]benzamide]

ASMS ratio (%) (n = 1): 0.0%
ASMS ratio (%) (n = 2): 0.0%
Compound: CCOc1cncc(-c2ccc(C(C)N3CCN(c4ccc(C(=O)NS(C)(=O)=O)cc4)CC3)cc2)c1 (stereo not shown) [B2I098-01, 4-[4-[1-[4-(5-Ethoxypyridin-3-yl)phenyl]ethyl]piperazin-1-yl]-N-methylsulfonylbenzamide]

ASMS ratio (%) (n = 1): 0.0%
ASMS ratio (%) (n = 2): 0.0%
Compound: CCOc1cccc(-c2ccc(CN3CCN(c4ccc(C(=O)NS(=O)(=O)CCC(F)(F)F)cc4)CC3)c(CC)c2)c1 [B2N049-01, 4-[4-[[4-(3-Ethoxyphenyl)-2-ethylphenyl]methyl]piperazin-1-yl]-N-(3,3,3-trifluoropropylsulfonyl)benzamide]

ASMS ratio (%) (n = 1): 0.0%
ASMS ratio (%) (n = 2): −1.0%
Compound: CCOc1cccc(C#Cc2ccccc2C(=O)N2CCN(c3ccc(C(=O)NS(=O)(=O)C(C)(C)C)nn3)CC2)c1 [B2L007-01, N-tert-Butylsulfonyl-6-[4-[2-[2-(3-ethoxyphenyl)ethynyl]benzoyl]piperazin-1-yl]pyridazine-3-carboxamide]

Second part, the compound before the results:

Compound: CCOc1cncc(-c2cc(CN3CCN(c4ccc(C(=O)NS(=O)(=O)CC56CC7CC(CC(C7)C5)C6)nn4)CC3)cc(OC(F)(F)F)c2)c1 [B2A090-01, N-(1-Adamantylmethylsulfonyl)-6-[4-[[3-(5-ethoxypyridin-3-yl)-5-(trifluoromethoxy)phenyl]methyl]piperazin-1-yl]pyridazine-3-carboxamide]
ASMS ratio (%) n = 1 (AS-MS, mixture library, Bcl-2): 22.0%
ASMS ratio (%) n = 2 (AS-MS, mixture library, Bcl-2): 4.7%

Compound: CCOc1cncc(C#Cc2cncc(C(=O)N3CCN(c4ccc(C(=O)N(CC)CC)cc4)CC3)c2)c1 [B4J032-01, 4-[4-[5-[2-(5-Ethoxypyridin-3-yl)ethynyl]pyridine-3-carbonyl]piperazin-1-yl]-N,N-diethylbenzamide]
ASMS ratio (%) n = 1 [1]: −7.2%
ASMS ratio (%) n = 2 [1]: 1.5%

Compound: CCOc1cccc(-c2cnn(-c3cc(C(=O)N4CCN(c5ccc(C(=O)NCC(F)(F)F)cc5)CC4)cc(C(F)(F)F)c3)c2)c1 [B1K043-01, 4-[4-[3-[4-(3-Ethoxyphenyl)pyrazol-1-yl]-5-(trifluoromethyl)benzoyl]piperazin-1-yl]-N-(2,2,2-trifluoroethyl)benzamide]
ASMS ratio (%) n = 1 [2]: 3.8%
ASMS ratio (%) n = 2 [2]: 1.9%

Compound: CCOc1cncc(-c2ccc(CN3CCN(c4ccc(C(=O)NS(=O)(=O)CC56CC7CC(CC(C7)C5)C6)nn4)CC3)c(OC)c2)c1 [B2A080-01, N-(1-Adamantylmethylsulfonyl)-6-[4-[[4-(5-ethoxypyridin-3-yl)-2-methoxyphenyl]methyl]piperazin-1-yl]pyridazine-3-carboxamide]
ASMS ratio (%) n = 1 (AS-MS, mixture library, Bcl-2): 0.0%
ASMS ratio (%) n = 2 (AS-MS, mixture library, Bcl-2): 0.0%

Compound: CCOc1cncc(C#Cc2ccccc2CN2CCN(c3ccc(C(=O)NS(=O)(=O)CC45CC6CC(CC(C6)C4)C5)cc3)CC2)c1 [B2A070-01, N-(1-Adamantylmethylsulfonyl)-4-[4-[[2-[2-(5-ethoxypyridin-3-yl)ethynyl]phenyl]methyl]piperazin-1-yl]benzamide]
ASMS ratio (%) n = 2 (AS-MS, mixture library, Bcl-2): 0.0%

Compound: 6-[4-[5-[2-(3-Ethoxyphenyl)ethynyl]pyridine-3-carbonyl]piperazin-1-yl]-N-propylpyridazine-3-carboxamide [B1M001-01]
ASMS ratio (%) n = 1 [2]: 0.0%
ASMS ratio (%) n = 2 [2]: 0.0%

Compound: 6-[4-[3-[2-(3-Ethoxyphenyl)phenyl]propanoyl]piperazin-1-yl]-N-propylpyridazine-3-carboxamide [B1M067-01]
ASMS ratio (%) n = 1 [2]: −1.6%
ASMS ratio (%) n = 2 [2]: −87.4%

Compound: 6-[4-[4-(5-Ethoxypyridin-3-yl)-3-fluorobenzoyl]piperazin-1-yl]-N-propylpyridazine-3-carboxamide [B1M088-01]
ASMS ratio (%) n = 1 [1]: 0.0%
ASMS ratio (%) n = 2 [1]: 0.0%

Compound: CCOc1cccc(-c2cc(OC)c(CN3CCN(c4ccc(C(=O)NCC(F)(F)F)nn4)CC3)c(OC)c2)c1 [B1K085-01]
ASMS ratio (%) n = 1 [2]: 4.2%
ASMS ratio (%) n = 2 [2]: −0.2%

Compound: CCOc1cncc(C#Cc2ccccc2CN2CCN(c3ccc(C(=O)Nc4ccc(OC)cc4)nn3)CC2)c1 [B1O096-01, 6-[4-[[2-[2-(5-Ethoxypyridin-3-yl)ethynyl]phenyl]methyl]piperazin-1-yl]-N-(4-methoxyphenyl)pyridazine-3-carboxamide]
ASMS ratio (%) n = 1 [1]: 0.0%
ASMS ratio (%) n = 2 [1]: 3.5%

Compound: CCOc1cncc(-c2ccc(CN3CCN(c4ccc(C(=O)NCC(F)(F)F)cc4)CC3)c3ccccc23)c1 [B1K066-01, 4-[4-[[4-(5-Ethoxypyridin-3-yl)naphthalen-1-yl]methyl]piperazin-1-yl]-N-(2,2,2-trifluoroethyl)benzamide]
ASMS ratio (%) n = 1 [2]: 1.8%
ASMS ratio (%) n = 2 [2]: −0.7%

Compound: CCOc1cccc(-c2ccc(CN3CCN(c4ccc(C(=O)NCC56CC7CC(CC(C7)C5)C6)cc4)CC3)c3ccccc23)c1 [B1A065-01, N-(1-Adamantylmethyl)-4-[4-[[4-(3-ethoxyphenyl)naphthalen-1-yl]methyl]piperazin-1-yl]benzamide]
ASMS ratio (%) n = 1 [2]: −32.6%
ASMS ratio (%) n = 2 [2]: −10.4%

Compound: CCOc1cccc(-c2cc(OC)c(CN3CCN(c4ccc(C(=O)NS(=O)(=O)CC56CC7CC(CC(C7)C5)C6)cc4)CC3)c(OC)c2)c1 [B2A059-01, N-(1-Adamantylmethylsulfonyl)-4-[4-[[4-(3-ethoxyphenyl)-2,6-dimethoxyphenyl]methyl]piperazin-1-yl]benzamide]
ASMS ratio (%) n = 1 (AS-MS, mixture library, Bcl-2): 0.0%
ASMS ratio (%) n = 2 (AS-MS, mixture library, Bcl-2): −42.2%

Compound: CCOc1cccc(-c2cnn(-c3cc(C(=O)N4CCN(c5ccc(C(=O)Nc6ccc(OC)cc6)cc5)CC4)cc(C(F)(F)F)c3)c2)c1 [B1O043-01, 4-[4-[3-[4-(3-Ethoxyphenyl)pyrazol-1-yl]-5-(trifluoromethyl)benzoyl]piperazin-1-yl]-N-(4-methoxyphenyl)benzamide]
ASMS ratio (%) n = 1 [1]: 2.2%
ASMS ratio (%) n = 2 [1]: −5.0%

Compound: CCOc1cccc(-c2cnn(-c3cc(C(=O)N4CCN(c5ccc(C(=O)NCC67CC8CC(CC(C8)C6)C7)cc5)CC4)cc(C(F)(F)F)c3)c2)c1 [B1A043-01, N-(1-Adamantylmethyl)-4-[4-[3-[4-(3-ethoxyphenyl)pyrazol-1-yl]-5-(trifluoromethyl)benzoyl]piperazin-1-yl]benzamide]
ASMS ratio (%) n = 1 [2]: 3.8%
ASMS ratio (%) n = 2 [2]: −2.9%

Compound: CCOc1cccc(-c2cc(C(=O)N3CCN(c4ccc(C(=O)N(CC)CC)cc4)CC3)cc(C(C)(C)C)c2)c1 [B4J037-01, 4-[4-[3-tert-Butyl-5-(3-ethoxyphenyl)benzoyl]piperazin-1-yl]-N,N-diethylbenzamide]
ASMS ratio (%) n = 1 [1]: 2.7%
ASMS ratio (%) n = 2 [1]: −1.5%

Compound: CCOc1cccc(-c2ccc(C(=O)N3CCN(c4ccc(C(=O)NS(=O)(=O)CC56CC7CC(CC(C7)C5)C6)cc4)CC3)cc2F)c1 [B2A027-01, N-(1-Adamantylmethylsulfonyl)-4-[4-[4-(3-ethoxyphenyl)-3-fluorobenzoyl]piperazin-1-yl]benzamide]
ASMS ratio (%) n = 1 (AS-MS, mixture library, Bcl-2): 5.5%
ASMS ratio (%) n = 2 (AS-MS, mixture library, Bcl-2): −3.9%
